Assay results as given in US9133206B2, “Benzodiazepine and pyridodiazepine derivatives” (AbbVie Inc., priority 2010, dated 2015).

Test system: SK-N-SH human neuroblastoma cells
Assay: Serum Deprivation/JC-1 Mitochondrial Membrane Potential (MMP) Assay
Type: cell-based
Details: Homo sapiens; for EC50 / Emax: SK-N-SH; for EC50: 18 h, serum deprivation ~18 hours, JC-1 ratio normalized to peak value for 10 μM dimebolin, single curve fit to mean data of n=2-3; for Emax: percent maximal intensity in JC-1 ratio normalized to peak value for 10 μM dimebolin, read-out: JC-1 max %; for Emax / activation at 3 µM: serum deprivation; for activation at 3 µM: single dose 3 μM, JC-1 ratio normalized to peak value for 10 μM dimebolin (n=2-4), read-out: JC-1 max % (@ 3 μM)
Text: The method also involves a high-throughput assay using serum-deprivation conditions involving neuronal cells to screen for compounds that increase or preserve mitochondrial membrane potential. Such compounds can be found to aid in rescuing cells from energy-depletion that occurs in several neurodegenerative states. Mitochondrial-mediated apoptosis occurs in response to a wide range of apoptotic stimuli including p^53, c-myc, DNA damage, prooxidants, chemotherapeutic agents, serum starvation and death receptor activation (Lin C—H., Lu Y-Z., Cheng, F-C., Chu L-F. and Hsuch C-M. Bax-regulated mitochondrial-mediated apoptosis is responsible for the in vitro ischemia induced neuronal cell death of Sprague Dawley rat. Neuroscience Lett. 2005, 387, 22-27).
Thus, this stress inducer, serum deprivation, combined with monitoring changes in the mitochondrial membrane potential in a 96-well format allows for the establishment of an efficient high-throughput screen (HTS) in order to evaluate the ability of compounds to increase mitochondrial membrane potential in the presence of stress and preserve health of the cell. Exemplary procedures for conducting such high-throughput assay are provided below.
SK-N-SH human neuroblastoma cells obtained from American Type Culture Collection (Rockville, Md.) were maintained in the log phase of growth in Minimal Essential Media (MEM), 10% heat inactivated fetal calf serum and 100 units/mL antibiotic-antimycotic (AA). Cells were cultured and maintained in a humidified incubator at 37° C. under 5% CO2 and 95% air. Cells were trypsinized (0.25%) and subcultured every 3 days and used from 15-18 passages. All cell culture supplies were obtained from Invitrogen (Carlsbad, Calif.).
SK-N-SH cells were plated 2-3 days in advance at a concentration of 50,000 cells/well onto collagen coated black-walled 96 well plates (Becton-Dickinson, Bedford, Mass.) in a total volume of […]. On day of experimental treatment, the media containing serum was aspirated from each well and rinsed once with MEM/1% AA without serum. The cells then were incubated overnight in 100 μL of MEM/1% AA (no serum) with and without dimebolin or novel chemical entities overnight for ˜18 hours. The following day, JC-1 dye (5,5′,6,6′-tetrachloro-1,1′,3,3′-tetraethylbenzimidazolcarbocyanide) was diluted 1:10 into MEM media according to the JC-1 Mitochondrial Membrane Potential Assay Kit: (Cayman Chemical Company, Ann Arbor, Mich.) and then 10 μL of the JC-1 dye solution was added to each well. The plates were centrifuged for 5 minutes at 400×g at room temperature followed by 40 minute incubation at 37° C. The plates were washed twice with 200 μL of provided Assay Buffer followed an addition of 100 μL of Assay Buffer to each well. The plates were read with an excitation and emission of 560 nm and 595 nM for red fluorescence and with an excitation and emission of 485 nm and 535 nM for green fluorescence to determine the final JC-1 value taking the red to green fluorescence ratio. This assay is based on change in mitochondrial membrane potential (MMP) using this lipophilic cationic dye, JC-1, by monitoring the changes in the ratio of red to green fluorescence as the MMP depolarizes. This change in MMP reflects the health of the cell with healthy, viable cells have a high JC-1 ratio and high MMP whereas apoptotic, unhealthy cells have a low JC-1 ratio or low MMP.
For the ability of compounds to reverse the stress due to serum deprivation and increase the JC-1 ratio, the percent maximal intensity in JC-1 ratio was normalized to that induced by the peak value for 10 μM dimebolin and plotted against the compound concentration to calculate EC50 values and to control for plate-to-plate variability. Concentration-response data were analyzed using GraphPad Prism (San Diego, Calif.); the EC50 values were derived from a single curve fit to the mean data of n=2-3, in duplicates. […]

Row | SMILES | EC50 [µM] | Emax [%] | activation at 3 µM [%]
1 | COc1ccc(CN2Cc3ccccc3N3CCN(Cc4ccccc4)CC3C2)cc1C (centres unmarked) [Example 119, 3-benzyl-6-(4-methoxy-3-methylbenzyl)-1,2,3,4,4a,5,6,7-octahydropyrazino[1,2-a][1,4]benzodiazepine] | 3.95 | 172 | 
2 | Fc1cc(F)cc(CN2Cc3ccccc3N3CCN(Cc4ccccc4)CC3C2)c1 (centres unmarked) [Example 24, 3-benzyl-6-(3,5-difluorobenzyl)-1,2,3,4,4a,5,6,7-octahydropyrazino[1,2-a][1,4]benzodiazepine] | 4.77 | 166 | 
3 | O=C(N1CCCCC1)N1Cc2ccccc2N2CCN(Cc3ccccc3)CC2C1 (centres unmarked) [Example 171, (3-benzyl-1,2,3,4,4a,5-hexahydropyrazino[1,2-a][1,4]benzodiazepin-6(7H)-yl)(piperidin-1-yl)methanone] | 2.45 | 251 | 
4 | O=C(c1ccncc1)N1CCC2CN(Cc3ccccc3)CCN2c2ccccc21 (centres unmarked) [Example 43, (3-benzyl-2,3,4,4a,5,6-hexahydropyrazino[1,2-a][1,5]benzodiazepin-7(1H)-yl)(pyridin-4-yl)methanone] | 6.76 | 115 | 
5 | CC1(C(=O)N2Cc3ccccc3N3CCN(Cc4ccccc4)CC3C2)CC1 (centres unmarked) [Example 114, (3-benzyl-1,2,3,4,4a,5-hexahydropyrazino[1,2-a][1,4]benzodiazepin-6(7H)-yl)(1-methylcyclopropyl)methanone] | 4.36 | 201 | 
6 | Ic1ccc(CN2Cc3ccccc3N3CCN(Cc4ccccc4)CC3C2)cc1 (centres unmarked) [Example 46, 3-benzyl-6-(4-iodobenzyl)-1,2,3,4,4a,5,6,7-octahydropyrazino[1,2-a][1,4]benzodiazepine] | 1.87 | 192 | 
7 | c1ccc(CN2CCN3c4ccccc4CN(Cc4ccnc5ccccc45)CC3C2)cc1 (centres unmarked) [Example 36, 3-benzyl-6-(quinolin-4-ylmethyl)-1,2,3,4,4a,5,6,7-octahydropyrazino[1,2-a][1,4]benzodiazepine] | 1.05 | 137 | 
8 | O=C(N1Cc2ccccc2N2CCN(Cc3ccccc3)CC2C1)C1(c2ccccc2)CC1 (centres unmarked) [Example 13, (3-benzyl-1,2,3,4,4a,5-hexahydropyrazino[1,2-a][1,4]benzodiazepin-6(7H)-yl)(1-phenylcyclopropyl)methanone] | 4.18 | 175 | 
9 | O=C(c1ccccc1)N1Cc2ccccc2N2CCN(Cc3ccccc3)CC2C1 (centres unmarked) [Example 5, (3-benzyl-1,2,3,4,4a,5-hexahydropyrazino[1,2-a][1,4]benzodiazepin-6(7H)-yl)(phenyl)methanone] | 6.7 | 57 | 
10 | O=C(N1CCOCC1)N1Cc2ccccc2N2CCNCC2C1 (centres unmarked) [Example 75, 1,2,3,4,4a,5-hexahydropyrazino[1,2-a][1,4]benzodiazepin-6(7H)-yl(morpholin-4-yl)methanone] | > 10 | 48 | 
11 | O=C(N1CCOCC1)N1Cc2ccccc2N2CCN(c3ncccn3)CC2C1 (centres unmarked) [Example 80, morpholin-4-yl[3-(pyrimidin-2-yl)-1,2,3,4,4a,5-hexahydropyrazino[1,2-a][1,4]benzodiazepin-6(7H)-yl]methanone] | 11.9 | 97 | 
12 | Cc1cccc(CN2Cc3ccccc3N3CCN(Cc4ccccc4)CC3C2)c1 (centres unmarked) [Example 145, 3-benzyl-6-(3-methylbenzyl),-1,2,3,4,4a,5,6,7-octahydropyrazino[1,2-a][1,4]benzodiazepine] | 3.14 | 151 | 
13 | COCCNC(=O)N1Cc2ccccc2N2CCN(Cc3ccccc3)CC2C1 (centres unmarked) [Example 167, 3-benzyl-N-(2-methoxyethyl)-1,2,3,4,4a,5-hexahydropyrazino[1,2-a][1,4]benzodiazepine-6(7H)-carboxamide] |  |  | 63
14 | O=C(C1CCOC1)N1Cc2ccccc2N2CCN(Cc3ccccc3)CC2C1 (centres unmarked) [Example 109, (3-benzyl-1,2,3,4,4a,5-hexahydropyrazino[1,2-a][1,4]benzodiazepin-6(7H)-yl)(tetrahydrofuran-3-yl)methanone] |  |  | 65
15 | Clc1ccc(CCN2CCC3CN(Cc4ccccc4)CCN3c3ncccc32)cc1 (centres unmarked) [Example 54, 9-benzyl-5-[2-(4-chlorophenyl)ethyl]-5,6,7,7a,8,9,10,11-octahydropyrazino[1,2-d]pyrido[3,2-b][1,4]diazepine] | 3.59 | 177 | 
16 | Cc1cc(CN2Cc3ccccc3N3CCN(Cc4ccccc4)CC3C2)oc1C (centres unmarked) [Example 120, 3-benzyl-6-[(4,5-dimethyl-2-furyl)methyl]-1,2,3,4,4a,5,6,7-octahydropyrazino[1,2-a][1,4]benzodiazepine] |  |  | -5
17 | CC(C)CNC(=O)N1Cc2ccccc2N2CCN(Cc3ccccc3)CC2C1 (centres unmarked) [Example 162, 3-benzyl-N-isobutyl-1,2,3,4,4a,5-hexahydropyrazino[1,2-a][1,4]benzodiazepine-6(7H)-carboxamide] |  |  | 194
18 | CCc1ccc(CN2Cc3ccccc3N3CCN(Cc4ccccc4)CC3C2)o1 (centres unmarked) [Example 127, 3-benzyl-6-[(5-ethyl-2-furyl)methyl]-1,2,3,4,4a,5,6,7-octahydropyrazino[1,2-a][1,4]benzodiazepine] |  |  | 26
19 | CC1CC1C(=O)N1Cc2ccccc2N2CCN(Cc3ccccc3)CC2C1 (centres unmarked) [Example 116, (3-benzyl-1,2,3,4,4a,5-hexahydropyrazino[1,2-a][1,4]benzodiazepin-6(7H)-yl)(2-methylcyclopropyl)methanone] |  |  | 198
20 | CC(=O)N1CCC(C(=O)N2Cc3ccccc3N3CCN(Cc4ccccc4)CC3C2)CC1 (centres unmarked) [Example 84, 1-{4-[(3-benzyl-1,2,3,4,4a,5-hexahydropyrazino[1,2-a][1,4]benzodiazepin-6(7H)-yl)carbonyl]piperidin-1-yl}ethanone] |  |  | 183
21 | c1ccc(CN2CCN3c4ccccc4N(Cc4ccncc4)CCC3C2)cc1 (centres unmarked) [Example 48, 3-benzyl-7-(pyridin-4-ylmethyl)-1,2,3,4,4a,5,6,7-octahydropyrazino[1,2-a][1,5]benzodiazepine] | 1.84 | 125 | 
22 | O=C(NCCc1ccccn1)N1Cc2ccccc2N2CCN(Cc3ccccc3)CC2C1 (centres unmarked) [Example 151, 3-benzyl-N-[2-(pyridin-2-yl)ethyl]-1,2,3,4,4a,5-hexahydropyrazino[1,2-a][1,4]benzodiazepine-6(7H)-carboxamide] | 1.8 | 163 | 
23 | O=C(CCN1CCCCC1)N1Cc2ccccc2N2CCN(Cc3ccccc3)CC2C1 (centres unmarked) [Example 111, 1-(3-benzyl-1,2,3,4,4a,5-hexahydropyrazino[1,2-a][1,4]benzodiazepin-6(7H)-yl)-3-(piperidin-1-yl)propan-1-one] |  |  | 162
24 | c1ccc(CN2CCN3c4ccccc4CN(Cc4cccc5ccccc45)CC3C2)cc1 (centres unmarked) [Example 138, 3-benzyl-6-(1-naphthylmethyl)-1,2,3,4,4a,5,6,7-octahydropyrazino[1,2-a][1,4]benzodiazepine] | 1.83 | 203 | 
25 | O=C(Cc1ccccc1)N1Cc2ccccc2N2CCN(Cc3ccccc3)CC2C1 (centres unmarked) [Example 4, 1-(3-benzyl-1,2,3,4,4a,5-hexahydropyrazino[1,2-a][1,4]benzodiazepin-6(7H)-yl)-2-phenylethanone] | 2.42 | 263 | 
26 | FC(F)(F)c1ccc(CN2Cc3ccccc3N3CCN(Cc4ccccc4)CC3C2)cn1 (centres unmarked) [Example 35, 3-benzyl-6-{[6-(trifluoromethyl)pyridin-3-yl]methyl}-1,2,3,4,4a,5,6,7-octahydropyrazino[1,2-a][1,4]benzodiazepine] | 2.86 | 159 | 
